Common to all, as to assay: In vitro MIC, broth dilution
What all share (type): cell-based

Assay [1] concerns M. morganii GC 4531. The conditions noted are these: Morganella morganii, GC4531; M. morganii GC 4531; read-out: MIC.
Assay [2] deals with E. coli GC 4559. To be noted: Escherichia coli, GC4559; E. coli GC 4559; read-out: MIC.
Assay [3] has as its system P. aeruginosa GC 4532. The conditions noted are these: Pseudomonas aeruginosa, GC4532; P. aeruginosa GC 4532; read-out: MIC.
The subject of assay [4] is E. coli GC 4560. The conditions noted are these: Escherichia coli, GC4560; E. coli GC 4560; read-out: MIC.
For assay [5], the system named is C. albicans GC 3066. To be noted: Candida albicans, GC3066; C. albicans GC 3066; read-out: MIC.
Assay [6] deals with K. pneumoniae GC 4534. To be noted: Klebsiella pneumoniae, GC4534; K. pneumoniae GC 4534; read-out: MIC.
Assay [7] relates to CNS GC 4537. To be noted: CNS GC 4537; read-out: MIC. The method, then:
(§1) The minimum inhibitory concentration (MIC), the lowest concentration of the antibiotic which inhibits growth of the test organism, is determined by the broth dilution method using Muller-Hinton II […] (Baltimore Biological Laboratories) following the recommendations of National Committee for Clinical Laboratory Standards. [Reference for the Methods for dilution antimicrobial susceptibility tests for bacteria that grow aerobically: National Committee for Clinical Laboratory Standards, 1997. Approved standard M7-A National Committee for Clinical Laboratory Standards, Wayne, Pa.] An inoculum level of 5×10^5 CFU/ml, and a range of antibiotic concentrations (64-0.06 μg/ml) is used. The MIC is determined after the microtiter plates are incubated for 18 hours at 35° C. in an ambient air incubator. The test organisms comprise a spectrum of gram-positive bacteria including Staphylococcus sp., Streptococcus sp. and Enterococcus sp. These organisms include recent clinical isolates that are resistant to methicillin, penicillin and vancomycin.

In assay [8] the test system is E. faecalis GC 4555. To be noted: Enterococcus faecalis, GC4555; E. faecalis GC 4555; read-out: MIC. The method, then:
as §1

The subject of assay [9] is S. aureus GC 1131. To be noted: Staphylococcus aureus, GC1131; S. aureus GC 1131; read-out: MIC. The protocol: as §1
Assay [10] relates to E. faecalis GC 2242. To be noted: Enterococcus faecalis, GC2242; E. faecalis GC 2242; read-out: MIC. The protocol: as §1
For assay [11], the system named is E. faecalis GC 842. To be noted: Enterococcus faecalis, GC842; E. faecalis GC 842; read-out: MIC. The method, then: as §1
Assay [12] deals with CNS GC 4547. To be noted: CNS GC 4547; read-out: MIC. The protocol: as §1
The subject of assay [13] is S. aureus GC 2216. The conditions noted are these: Staphylococcus aureus, GC2216; S. aureus GC 2216; read-out: MIC. The protocol:
as §1

For assay [14], the system named is S. aureus GC 4536. The conditions noted are these: Staphylococcus aureus, GC4536; S. aureus GC 4536; read-out: MIC. The method, then: as §1
For assay [15], the system named is CNS GC 4538. To be noted: CNS GC 4538; read-out: MIC. The method, then: as §1
Assay [16] has as its system E. cloacae GC 3783. To be noted: Enterobacter cloacae, GC3783; E. cloacae GC 3783; read-out: MIC.
In assay [17] the test system is E. coli GC 3226. To be noted: Escherichia coli, GC3226; E. coli GC 3226; read-out: MIC.
Assay [18] relates to S. marcescens GC 4077. The conditions noted are these: Serratia marcescens, GC4077; S. marcescens GC 4077; read-out: MIC.
For assay [19], the system named is P. aeruginosa GC 2214. The conditions noted are these: Pseudomonas aeruginosa, GC2214; P. aeruginosa GC 2214; read-out: MIC.
The test system of assay [20] is E. coli GC 2203. To be noted: Escherichia coli, GC2203; E. coli GC 2203; read-out: MIC.

The text below walks through data of patent US6858591B2, “Antibiotic AA 896 analogs” (Wyeth Holdings Corporation, priority 2001, dated 2005).

Values after ≈ are worked out from the molar mass of the structure shown.

In the case of `COc1ccc(Cn2c(=O)ccn([C@@H]3OC([C@H](O)[C@H](NCCCNC(=O)[C@@H](N)[C@@H](O)C(C)C)C(=O)OC(C)(C)C)[C@@H](O[Si](C)(C)C(C)(C)C)[C@H]3O[Si](C)(C)C(C)(C)C)c2=O)cc1` (stereo partly drawn) [Example 2, tert-Butyl (2S,3R)-2-[(3-{[(2S,3S)-2-amino-3-hydroxy-4-methylpentanoyl]amino}propyl)amino]-3-[(3R,4R,5R)-3,4-bis{[tert-butyl(dimethyl)silyl]oxy}-5-(3-(4-methoxybenzyl)-2,4-dioxo-3,4-dihydro-1(2H)-pyrimidinyl)tetrahydro-2-furanyl]-3-hydroxypropanoate], the MIC in assay [1], in assay [2], in [3], in [4], in assay [5] and in assay [6] was above 128 µg/mL in each case. Besides, the MIC in assay [7] was 4 µg/mL (≈ 4.4 µM); in assay [8] it was 4 µg/mL (≈ 4.4 µM); in [9], 4 µg/mL (≈ 4.4 µM); in assay [10], 4 µg/mL (≈ 4.4 µM); in assay [11], 8 µg/mL (≈ 8.81 µM); in assay [12], 16 µg/mL (≈ 17.6 µM). For the same compound, the MIC in assay [13] is 4 µg/mL (≈ 4.4 µM); in assay [14], 16 µg/mL (≈ 17.6 µM); in assay [15], 4 µg/mL (≈ 4.4 µM); in assay [16], above 128 µg/mL; in [17] it was above 128 µg/mL; in assay [18] it was above 128 µg/mL. Moreover, the MIC in [19] and in assay [20] was above 128 µg/mL throughout.
As to `COc1ccc(Cn2c(=O)ccn([C@@H]3OC([C@H](O)[C@H](NCCCNC(=O)[C@H](CC(C)C)NC(=O)OCc4ccccc4)C(=O)OC(C)(C)C)[C@@H](O[Si](C)(C)C(C)(C)C)[C@H]3O[Si](C)(C)C(C)(C)C)c2=O)cc1` (stereo partly drawn) [Example 4, tert-Butyl (5S,12S)-12-[(R)-[(3R,4R,5R)-3,4-bis{[tert-butyl(dimethyl)silyl]oxy}-5-(3-(4-methoxybenzyl)-2,4-dioxo-3,4-dihydro-1(2H)-pyrimidinyl)tetrahydro-2-furanyl](hydroxy)methyl]-5-isobutyl-3,6-dioxo-1-phenyl-2-oxa-4,7,11-triazatridecan-13-oate], the MIC in assay [1], in assay [2], in assay [3], in [4], in [5] and in assay [6] was above 128 µg/mL in each case. Moreover, the MIC in [7] was above 128 µg/mL; in assay [8], above 128 µg/mL; in assay [9], above 128 µg/mL; in assay [10] it was 128 µg/mL (≈ 125 µM); in assay [11] it was above 128 µg/mL; in [12] it was above 128 µg/mL. The minimal inhibitory concentration (MIC) in assay [13], in assay [14], in assay [15], in assay [16], in assay [17] and in [18] was above 128 µg/mL each time. The MIC was 128 µg/mL (≈ 125 µM) in assay [19] and above 128 µg/mL in [20].
As to `COc1ccc(Cn2c(=O)ccn([C@@H]3OC([C@H](O)[C@H](NCCCNC(=O)[C@@H](N)CC(C)C)C(=O)OC(C)(C)C)[C@@H](O[Si](C)(C)C(C)(C)C)[C@H]3O[Si](C)(C)C(C)(C)C)c2=O)cc1` (stereo partly drawn) [Example 5, tert-Butyl (2S,3R)-2-[(3-{[(2S)-2-amino-4-methylpentanoyl]amino}propyl)amino]-3-[(3R,4R,5R)-3,4-bis{[tert-butyl(dimethyl)silyl]oxy}-5-(3-(4-methoxybenzyl)-2,4-dioxo-3,4-dihydro-1(2H)-pyrimidinyl)tetrahydro-2-furanyl]-3-hydroxypropanoate], the MIC in [1], in [2], in assay [3], in assay [4], in assay [5] and in [6] was above 128 µg/mL each time. The MIC in [7] was found to be 4 µg/mL (≈ 4.48 µM); in assay [8], 8 µg/mL (≈ 8.97 µM); in [9], 32 µg/mL (≈ 35.9 µM); in assay [10] it was 4 µg/mL (≈ 4.48 µM); in assay [11], 16 µg/mL (≈ 17.9 µM); in assay [12] it was 64 µg/mL (≈ 71.7 µM). Besides, the MIC was 8 µg/mL (≈ 8.97 µM) in assay [13]; 16 µg/mL (≈ 17.9 µM) in [14]; 8 µg/mL (≈ 8.97 µM) in assay [15]; above 128 µg/mL in [16]; above 128 µg/mL in assay [17]; above 128 µg/mL in [18]. For the same compound, the MIC in assay [19] and in [20] was above 128 µg/mL throughout.
Take `CC(C)C[C@H](NC(=O)OCc1ccccc1)C(=O)NCCCN[C@H](C(=O)OC(C)(C)C)[C@@H](O)C1O[C@@H](n2ccc(=O)[nH]c2=O)[C@H](O[Si](C)(C)C(C)(C)C)[C@@H]1O[Si](C)(C)C(C)(C)C` (stereo partly drawn) [Example 6, tert-Butyl (5S,12S)-12-[(R)-[(3R,4R,5R)-3,4-bis{[tert-butyl(dimethyl)silyl]oxy}-5-(2,4-dioxo-3,4-dihydro-1(2H)-pyrimidinyl)tetrahydro-2-furanyl](hydroxy)methyl]-5-isobutyl-3,6-dioxo-1-phenyl-2-oxa-4,7,11-triazatridecan-13-oate]: the MIC in assay [1] was 128 µg/mL (≈ 141 µM); in [2] it was above 128 µg/mL; in [3], 128 µg/mL (≈ 141 µM); in assay [4] it was 128 µg/mL (≈ 141 µM); in assay [5], above 128 µg/mL; in [6], above 128 µg/mL. The MIC in assay [7] is above 128 µg/mL; in assay [8], above 128 µg/mL; in assay [9], above 128 µg/mL; in assay [10], 64 µg/mL (≈ 70.6 µM); in assay [11], above 128 µg/mL; in assay [12], above 128 µg/mL. In addition, the minimal inhibitory concentration (MIC) in assay [13], in assay [14], in assay [15], in assay [16], in [17] and in [18] was above 128 µg/mL each time. For the same compound, the MIC in assay [19] is 128 µg/mL (≈ 141 µM); in assay [20], above 128 µg/mL.
With `CC(C)C[C@H](N)C(=O)NCCCN[C@H](C(=O)OC(C)(C)C)[C@@H](O)C1O[C@@H](n2ccc(=O)[nH]c2=O)[C@H](O[Si](C)(C)C(C)(C)C)[C@@H]1O[Si](C)(C)C(C)(C)C` (stereo partly drawn) [Example 7, tert-Butyl (2S,3R)-2-[(3-{[(2S)-2-amino-4-methylpentanoyl]amino}propyl)amino]-3-[(3R,4R,5R)-3,4-bis{[tert-butyl(dimethyl)silyl]oxy}-5-(2,4-dioxo-3,4-dihydro-1(2H)-pyrimidinyl)tetrahydro-2-furanyl]-3-hydroxypropanoate], the MIC in assay [1] was 128 µg/mL (≈ 166 µM); in [2], above 128 µg/mL; in assay [3] it was 128 µg/mL (≈ 166 µM); in assay [4], 32 µg/mL (≈ 41.4 µM); in assay [5], 32 µg/mL (≈ 41.4 µM); in assay [6] it was 128 µg/mL (≈ 166 µM). For the same compound, the MIC in assay [7] worked out at 1 µg/mL (≈ 1.3 µM); in [8], 2 µg/mL (≈ 2.59 µM); in [9], 1 µg/mL (≈ 1.3 µM); in assay [10] it was 2 µg/mL (≈ 2.59 µM); in assay [11], 2 µg/mL (≈ 2.59 µM); in assay [12], 2 µg/mL (≈ 2.59 µM). The MIC is 2 µg/mL (≈ 2.59 µM) in [13]; 1 µg/mL (≈ 1.3 µM) in assay [14]; 2 µg/mL (≈ 2.59 µM) in assay [15]; 128 µg/mL (≈ 166 µM) in assay [16]; above 128 µg/mL in [17]; 128 µg/mL (≈ 166 µM) in [18]. Also, the MIC was 128 µg/mL (≈ 166 µM) in [19] and above 128 µg/mL in assay [20].
